According to patent publication US20260062422A1 (Halda Therapeutics OpCo, Inc., priority 2022, published 2026):

How the values were obtained:
[1] = tested on: T-Rex 293 cell line SC3 cells lacking increased expression of androgen receptor protein; experiment: Cellular growth inhibition, T-Rex 293 SC3 cells without doxycycline, CellTiter-Glo; assay type: cell-based; conditions: 72 h, T-Rex 293 SC3 cells not exposed to doxycycline, CellTiter-Glo 2.0
In short: (§1)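 SC3 is a T-Rex 293 clone stably transfected with wild-type androgen receptor in pcDNA4/TO, inducible by 10 ng/mL doxycycline. Cells were grown in phenol red-free DMEM with 10% charcoal-dextran FBS, with or without doxycycline, dosed 24 h after seeding (0.5% DMSO) for 72 h. Viability was read by CellTiter-Glo 2.0 luminescence and GI50 obtained from four-parameter fits.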

T47D cells = experiment: Cellular growth inhibition assay for T47D cells, CellTiter-Glo; assay type: cell-based, human; conditions: Homo sapiens, T47D, 72 h, 72 hours treatment, CellTiter-Glo 2.0 cell viability
In short: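 Cells are plated at 3000/well and allowed 24 h before treatment. Test compound in medium containing 0.5% DMSO is then added, with DMSO-only wells as negative control, and plates are incubated 72 h at 37 °C. ATP luminescence (CellTiter-Glo 2.0) is then fitted to four parameters to derive GI50.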

[2] = tested on: T-Rex 293 cell line SC3 cells having increased expression of androgen receptor protein due to exposure to doxycycline; experiment: Cellular growth inhibition, T-Rex 293 SC3 cells with doxycycline (androgen receptor induced), CellTiter-Glo; assay type: cell-based; conditions: 72 h, T-Rex 293 SC3 cells with 10 ng/mL doxycycline (increased androgen receptor expression)
In short: as §1

| SMILES | GI50 [1] | GI50 (T47D cells) | GI50 [2] |
| --- | --- | --- | --- |
| CCNC(=O)C[C@@H]1N=C(c2ccc(N(C)CCN3CCN(c4ncc(C(=O)N[C@H]5C(C)(C)[C@H](Oc6ccc(C#N)c(Cl)c6)C5(C)C)cn4)CC3)cc2)c2c(sc(C)c2C)-n2c(C)nnc21 [Compound I-108] | < 0.5 µM | 0.5 to 1.5 µM | < 0.5 µM |
| Cc1sc2c(c1C)C(c1ccc(OC3CC4(C3)CC3(CCN(c5ncc(C(=O)N[C@H]6C(C)(C)[C@H](Oc7ccc(C#N)c(Cl)c7)C6(C)C)cn5)CC3)C4)cc1)=N[C@@H](Cc1ncco1)c1nnc(C)n1-2 [Compound I-283] | > 3 µM | < 0.5 µM | < 0.5 µM |
| Cc1sc2c(c1C)C(c1ccc(N3CC(C4CCN(c5ncc(C(=O)N[C@H]6C(C)(C)[C@H](Oc7ccc(C#N)c(Cl)c7)C6(C)C)cn5)CC4)C3)cc1)=NC(Cc1ncco1)c1nnc(C)n1-2 (stereo partly drawn) [Compound I-209] | > 3 µM | < 0.5 µM | < 0.5 µM |
| Cc1sc2c(c1C)C(c1ccc(Cl)cc1)=N[C@@H](CC(=O)NCCCN1CCN(CC3CCN(c4ncc(C(=O)N[C@H]5C(C)(C)[C@H](Oc6ccc(C#N)c(Cl)c6)C5(C)C)cn4)CC3)CC1)c1nnc(C)n1-2 [Compound I-36, N-((1r,3r)-3-(3-chloro-4-cyanophenoxy)-2,2,4,4-tetramethylcyclobutyl)-2-(4-((4-(3-(2-((S)-4-(4-chlorophenyl)-2,3,9-trimethyl-6H-thieno[3,2-f][1,2,4]triazolo[4,3-a][1,4]diazepin-6-yl)acetamido)propyl)piperazin-1-yl)methyl)piperidin-1-yl)pyrimidine-5-carboxamide] | 0.5 to 1.5 µM | < 0.5 µM | 0.5 to 1.5 µM |
| Cc1sc2c(c1C)C(c1ccc(OC3CC4(CCN(c5ncc(C(=O)N[C@H]6C(C)(C)[C@H](Oc7ccc(C#N)c(Cl)c7)C6(C)C)cn5)CC4)C3)cc1)=NC(Cc1ncco1)c1nnc(C)n1-2 (stereo partly drawn) [Compound I-166] | 0.5 to 1.5 µM | 0.5 to 1.5 µM | < 0.5 µM |
| CCNC(=O)C[C@@H]1N=C(c2ccc(Oc3ncc(C(=O)N[C@H]4C(C)(C)[C@H](Oc5ccc(C#N)c(Cl)c5)C4(C)C)cn3)cc2)c2c(sc(C)c2C)-n2c(C)nnc21 [Compound I-84] | 1.5 to 3 µM | 1.5 to 3 µM | 0.5 to 1.5 µM |
| Cc1sc2c(c1C)C(c1cccc(OCCOC3CCN(c4ncc(C(=O)N[C@H]5C(C)(C)[C@H](Oc6ccc(C#N)c(Cl)c6)C5(C)C)cn4)CC3)c1)=N[C@@H](CC(=O)O)c1nnc(C)n1-2 [Compound I-41] | > 3 µM | 1.5 to 3 µM | 0.5 to 1.5 µM |
| CCNC(=O)C[C@@H]1N=C(c2ccc(N(C)CC3CN(c4ncc(C(=O)N[C@H]5C(C)(C)[C@H](Oc6ccc(C#N)c(Cl)c6)C5(C)C)cn4)C3)cc2)c2c(sc(C)c2C)-n2c(C)nnc21 [Compound I-107] | 0.5 to 1.5 µM | 0.5 to 1.5 µM | < 0.5 µM |
| CCNC(=O)C[C@@H]1N=C(c2ccc(N(C)C3CC(OC4CCN(c5ncc(C(=O)N[C@H]6C(C)(C)[C@H](Oc7ccc(C#N)c(Cl)c7)C6(C)C)cn5)CC4)C3)cc2)c2c(sc(C)c2C)-n2c(C)nnc21 (stereo partly drawn) [Compound I-130] | 0.5 to 1.5 µM | 0.5 to 1.5 µM | < 0.5 µM |
| CCNC(=O)C[C@@H]1N=C(c2ccc(OCCOCCOC3CCN(c4ncc(C(=O)N[C@H]5C(C)(C)[C@H](Oc6ccc(C#N)c(Cl)c6)C5(C)C)cn4)CC3)cc2)c2c(sc(C)c2C)-n2c(C)nnc21 [Compound I-44] | 0.5 to 1.5 µM | 0.5 to 1.5 µM | < 0.5 µM |
| CCNC(=O)C[C@@H]1N=C(c2ccc(OCCCN(C)c3ncc(C(=O)N[C@H]4C(C)(C)[C@H](Oc5ccc(C#N)c(Cl)c5)C4(C)C)cn3)cc2)c2c(sc(C)c2C)-n2c(C)nnc21 [Compound I-81] | 0.5 to 1.5 µM | 0.5 to 1.5 µM | < 0.5 µM |
| CCNC(=O)C[C@@H]1N=C(c2ccc(CCCN(C)c3ncc(C(=O)N[C@H]4C(C)(C)[C@H](Oc5ccc(C#N)c(Cl)c5)C4(C)C)cn3)cc2)c2c(sc(C)c2C)-n2c(C)nnc21 [Compound I-104] | < 0.5 µM | < 0.5 µM | < 0.5 µM |
| CCNC(=O)C[C@@H]1N=C(c2ccc(OCCOC3CCN(c4ncc(C(=O)N[C@H]5C(C)(C)[C@H](Oc6ccc(C#N)c(Cl)c6)C5(C)C)cn4)CC3)cc2F)c2c(sc(C)c2C)-n2c(C)nnc21 [Compound I-75] | 0.5 to 1.5 µM | < 0.5 µM | < 0.5 µM |
| Cc1sc2c(c1C)C(c1ccc(CCCOC3CCN(c4ncc(C(=O)N[C@H]5C(C)(C)[C@H](Oc6ccc(C#N)c(Cl)c6)C5(C)C)cn4)CC3)cc1)=N[C@@H](CC(=O)NC1CC1)c1nnc(C)n1-2 [Compound I-102] | > 3 µM | < 0.5 µM | < 0.5 µM |
| CCNC(=O)C[C@@H]1N=C(c2cccc(OCCOC3CCN(c4ncc(C(=O)N[C@H]5C(C)(C)[C@H](Oc6ccc(C#N)c(Cl)c6)C5(C)C)cn4)CC3)c2)c2c(sc(C)c2C)-n2c(C)nnc21 [Compound I-46, N-((1r,3r)-3-(3-chloro-4-cyanophenoxy)-2,2,4,4-tetramethylcyclobutyl)-2-(4-(2-(3-((S)-6-(2-(ethylamino)-2-oxoethyl)-2,3,9-trimethyl-6H-thieno[3,2-f][1,2,4]triazolo[4,3-a][1,4]diazepin-4-yl)phenoxy)ethoxy)piperidin-1-yl)pyrimidine-5-carboxamide] | 0.5 to 1.5 µM | 0.5 to 1.5 µM | < 0.5 µM |
| CCNC(=O)C[C@@H]1N=C(c2ccc(N(C3CC3)C3CN(CC4CCN(c5ncc(C(=O)N[C@H]6C(C)(C)[C@H](Oc7ccc(C#N)c(Cl)c7)C6(C)C)cn5)CC4)C3)cc2)c2c(sc(C)c2C)-n2c(C)nnc21 [Compound I-129] | 1.5 to 3 µM | 0.5 to 1.5 µM | < 0.5 µM |
| Cc1sc2c(c1C)C(c1ccc(Cl)cc1)=N[C@@H](CC(=O)NCCN(C)c1ncc(C(=O)N[C@H]3C(C)(C)[C@H](Oc4ccc(C#N)c(Cl)c4)C3(C)C)cn1)c1nnc(C)n1-2 [Compound I-1, N-[3-(3-chloro-4-cyano-phenoxy)-2,2,4,4-tetramethyl-cyclobutyl]-2-[2-[[2-[(9S)-7-(4-chlorophenyl)-4,5,13-trimethyl-3-thia-1,8,11,12-tetrazatricyclo[8.3.0.02,6]trideca-2(6),4,7,10,12-pentaen-9-yl]acetyl]amino]ethyl-methyl-amino]pyrimidine-5-carboxamide] | 1.5 to 3 µM | < 0.5 µM | 1.5 to 3 µM |
| CCNC(=O)C[C@@H]1N=C(c2ccc(C#CCN3CCN(c4ncc(C(=O)N[C@H]5C(C)(C)[C@H](Oc6ccc(C#N)c(Cl)c6)C5(C)C)cn4)CC3)cc2)c2c(sc(C)c2C)-n2c(C)nnc21 [Compound I-54, N-[3-(3-chloro-4-cyano-phenoxy)-2,2,4,4-tetramethyl-cyclobutyl]-2-[4-[3-[4-[(9S)-9-[2-(ethylamino)-2-oxo-ethyl]-4,5,13-trimethyl-3-thia-1,8,11,12-tetrazatricyclo[8.3.0.02,6]trideca-2(6),4,7,10,12-pentaen-7-yl]phenyl]prop-2-ynyl]piperazin-1-yl]pyrimidine-5-carboxamide] | 0.5 to 1.5 µM | 0.5 to 1.5 µM | < 0.5 µM |
| Cc1sc2c(c1C)C(c1ccc(CCCOC3CCN(c4ncc(C(=O)N[C@H]5C(C)(C)[C@H](Oc6ccc(C#N)c(Cl)c6)C5(C)C)cn4)CC3)cc1)=N[C@@H](Cc1ncco1)c1nnc(C)n1-2 [Compound I-131, N-[3-(3-chloro-4-cyano-phenoxy)-2,2,4,4-tetramethyl-cyclobutyl]-2-[4-[3-[4-[(9S)-4,5,13-trimethyl-9-(oxazol-2-ylmethyl)-3-thia-1,8,11,12-tetrazatricyclo[8.3.0.02,6]trideca-2(6),4,7,10,12-pentaen-7-yl]phenyl]propoxy]-1-piperidyl]pyrimidine-5-carboxamide] | < 0.5 µM | < 0.5 µM | < 0.5 µM |
| Cc1sc2c(c1C)C(c1ccc(Cl)cc1)=N[C@H](CC(=O)NCCOCCOCCOCCOCCOC1CCN(c3ncc(C(=O)N[C@H]4C(C)(C)[C@H](Oc5ccc(C#N)c(Cl)c5)C4(C)C)cn3)CC1)c1nnc(C)n1-2 [Compound I-14] | > 3 µM | 0.5 to 1.5 µM | > 3 µM |
| Cc1sc2c(c1C)C(c1ccc(C3CC3C3CC4(CCN(c5ncc(C(=O)N[C@H]6C(C)(C)[C@H](Oc7ccc(C#N)c(Cl)c7)C6(C)C)cn5)CC4)C3)cc1)=N[C@@H](Cc1ncco1)c1nnc(C)n1-2 (stereo partly drawn) [Compound I-237] | > 3 µM | < 0.5 µM | < 0.5 µM |
| CCN(C)C(=O)C[C@@H]1N=C(c2ccc(CCCOC3CCN(c4ncc(C(=O)N[C@H]5C(C)(C)[C@H](Oc6ccc(C#N)c(Cl)c6)C5(C)C)cn4)CC3)cc2)c2c(sc(C)c2C)-n2c(C)nnc21 [Compound I-101] | > 3 µM | 0.5 to 1.5 µM | < 0.5 µM |
| CCNC(=O)C[C@@H]1N=C(c2ccc(OCC3CN(c4ncc(C(=O)N[C@H]5C(C)(C)[C@H](Oc6ccc(C#N)c(Cl)c6)C5(C)C)cn4)C3)cc2)c2c(sc(C)c2C)-n2c(C)nnc21 [Compound I-71] | 0.5 to 1.5 µM | < 0.5 µM | < 0.5 µM |
| CCNC(=O)C[C@@H]1N=C(c2ccc(OCCCCc3ncc(C(=O)N[C@H]4C(C)(C)[C@H](Oc5ccc(C#N)c(Cl)c5)C4(C)C)cn3)cc2)c2c(sc(C)c2C)-n2c(C)nnc21 [Compound I-86] | 1.5 to 3 µM | 0.5 to 1.5 µM | < 0.5 µM |
| Cc1sc2c(c1C)C(c1ccc(OC3CN(CC4CCN(c5ncc(C(=O)N[C@H]6C(C)(C)[C@H](Oc7ccc(C#N)c(Cl)c7)C6(C)C)cn5)CC4)C3)cc1)=N[C@H](Cc1ncco1)c1nnc(C)n1-2 [Compound I-169] | > 3 µM | < 0.5 µM | < 0.5 µM |
